# In patent publication US9492471B2, “Methods of treating a disease or disorder associated with Bruton'S Tyrosine Kinase” (Celgene Avilomics Research, Inc., priority 2013, dated 2016):
# Read-outs that look alike come from different tables or passages of the source.
# Experiments:
# Assay in all cases: HotSpot kinase profiling
# Type in all cases: biochemical
# ALK3/BMPR1A = biological target: T1, ALK3/BMPR1A (Homo sapiens, UniProt P36894)
# T1 construct: purchased Reaction Biology Corp
# Summary of the method: (§1)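 Radiometric kinase assay with P81 filter capture; each kinase was added to fresh substrate plus cofactors in reaction buffer and incubated 2 h at room temperature. Unreacted phosphate was washed off with 0.1% phosphoric acid before detection; percent inhibition is relative to DMSO control, averaged over replicates.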
# CDK3/cyclin E = biological target: T2, CDK3/cyclin E (Homo sapiens, UniProt Q00526)
# T2 construct: purchased Reaction Biology Corp
# Summary of the method: as §1
# LYN = biological target: T3, LYN (Homo sapiens, UniProt P07948)
# T3 construct: purchased Reaction Biology Corp
# Summary of the method: as §1
# PKCmu/PRKD1 = biological target: T4, PKCmu/PRKD1 (Homo sapiens, UniProt Q15139)
# T4 construct: purchased Reaction Biology Corp
# T4 sequence (Q15139 1-912): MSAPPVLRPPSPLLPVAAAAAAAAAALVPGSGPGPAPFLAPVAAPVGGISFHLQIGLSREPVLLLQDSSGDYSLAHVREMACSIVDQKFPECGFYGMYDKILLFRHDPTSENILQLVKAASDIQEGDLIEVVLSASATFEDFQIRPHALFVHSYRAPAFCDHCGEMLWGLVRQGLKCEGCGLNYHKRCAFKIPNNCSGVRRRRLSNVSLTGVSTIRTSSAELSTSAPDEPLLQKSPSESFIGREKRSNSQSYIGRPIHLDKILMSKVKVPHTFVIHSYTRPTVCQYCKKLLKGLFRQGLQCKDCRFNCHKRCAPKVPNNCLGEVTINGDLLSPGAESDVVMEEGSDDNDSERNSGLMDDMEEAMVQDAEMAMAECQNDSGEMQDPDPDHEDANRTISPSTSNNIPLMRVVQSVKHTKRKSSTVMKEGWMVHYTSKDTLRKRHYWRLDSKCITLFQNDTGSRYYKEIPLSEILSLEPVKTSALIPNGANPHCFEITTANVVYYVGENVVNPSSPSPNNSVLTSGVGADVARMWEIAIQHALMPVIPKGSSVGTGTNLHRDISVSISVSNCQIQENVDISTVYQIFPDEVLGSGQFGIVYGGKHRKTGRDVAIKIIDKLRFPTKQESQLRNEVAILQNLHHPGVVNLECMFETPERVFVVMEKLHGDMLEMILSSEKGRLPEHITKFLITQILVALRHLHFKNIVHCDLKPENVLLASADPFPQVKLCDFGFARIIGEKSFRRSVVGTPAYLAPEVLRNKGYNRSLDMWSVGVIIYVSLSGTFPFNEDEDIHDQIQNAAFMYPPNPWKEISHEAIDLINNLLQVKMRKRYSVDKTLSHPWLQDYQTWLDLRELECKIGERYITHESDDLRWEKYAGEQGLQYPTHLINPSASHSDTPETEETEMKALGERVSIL
# Summary of the method: as §1
# PKN1/PRK1 = biological target: T5, PKN1/PRK1 (Homo sapiens, UniProt Q16512)
# T5 construct: purchased Reaction Biology Corp
# Summary of the method: as §1
# STK38/NDR1 = biological target: T6, STK38/NDR1 (Homo sapiens, UniProt Q15208)
# T6 construct: purchased Reaction Biology Corp
# Summary of the method: as §1
# TXK = biological target: T7, TXK (Homo sapiens, UniProt P42681)
# T7 construct: purchased Reaction Biology Corp
# T7 sequence (P42681 1-527): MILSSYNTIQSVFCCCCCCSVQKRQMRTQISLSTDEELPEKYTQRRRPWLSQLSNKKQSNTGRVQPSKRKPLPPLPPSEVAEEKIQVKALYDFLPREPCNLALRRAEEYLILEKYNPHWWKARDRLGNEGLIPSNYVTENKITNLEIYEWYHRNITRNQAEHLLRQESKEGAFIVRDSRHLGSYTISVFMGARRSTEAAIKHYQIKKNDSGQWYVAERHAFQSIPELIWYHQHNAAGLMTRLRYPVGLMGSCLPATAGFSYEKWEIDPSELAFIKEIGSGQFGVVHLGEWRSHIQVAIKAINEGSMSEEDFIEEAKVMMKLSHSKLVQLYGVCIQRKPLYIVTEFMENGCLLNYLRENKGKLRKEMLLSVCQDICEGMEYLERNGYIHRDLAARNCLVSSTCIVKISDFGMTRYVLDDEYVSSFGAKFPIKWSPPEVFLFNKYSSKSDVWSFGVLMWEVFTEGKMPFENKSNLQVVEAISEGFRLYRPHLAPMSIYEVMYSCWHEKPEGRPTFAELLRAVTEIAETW
# Summary of the method: as §1
# c-Src = biological target: T8, c-Src (Homo sapiens, UniProt P12931)
# T8 construct: purchased Reaction Biology Corp
# Summary of the method: as §1
# [1] = read-out: % Enzyme Activity (relative to DMSO controls) Run 1
# [2] = read-out: % Enzyme Activity (relative to DMSO controls) Run 2
# T3 sequence (P07948 whole entry): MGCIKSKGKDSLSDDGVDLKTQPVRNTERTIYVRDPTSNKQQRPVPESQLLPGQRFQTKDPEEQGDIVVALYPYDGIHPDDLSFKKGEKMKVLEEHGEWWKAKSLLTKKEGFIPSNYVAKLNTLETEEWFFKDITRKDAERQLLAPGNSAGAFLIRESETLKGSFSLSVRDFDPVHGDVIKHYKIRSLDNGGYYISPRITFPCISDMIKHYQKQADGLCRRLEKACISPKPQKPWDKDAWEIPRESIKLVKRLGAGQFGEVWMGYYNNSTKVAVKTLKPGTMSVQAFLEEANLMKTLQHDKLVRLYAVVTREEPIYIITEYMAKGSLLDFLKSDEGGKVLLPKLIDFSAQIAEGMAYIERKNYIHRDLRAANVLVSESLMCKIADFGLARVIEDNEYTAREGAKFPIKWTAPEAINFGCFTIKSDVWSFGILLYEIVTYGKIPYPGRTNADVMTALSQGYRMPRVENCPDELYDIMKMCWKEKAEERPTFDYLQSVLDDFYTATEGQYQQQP
# T5 sequence (Q16512 whole entry): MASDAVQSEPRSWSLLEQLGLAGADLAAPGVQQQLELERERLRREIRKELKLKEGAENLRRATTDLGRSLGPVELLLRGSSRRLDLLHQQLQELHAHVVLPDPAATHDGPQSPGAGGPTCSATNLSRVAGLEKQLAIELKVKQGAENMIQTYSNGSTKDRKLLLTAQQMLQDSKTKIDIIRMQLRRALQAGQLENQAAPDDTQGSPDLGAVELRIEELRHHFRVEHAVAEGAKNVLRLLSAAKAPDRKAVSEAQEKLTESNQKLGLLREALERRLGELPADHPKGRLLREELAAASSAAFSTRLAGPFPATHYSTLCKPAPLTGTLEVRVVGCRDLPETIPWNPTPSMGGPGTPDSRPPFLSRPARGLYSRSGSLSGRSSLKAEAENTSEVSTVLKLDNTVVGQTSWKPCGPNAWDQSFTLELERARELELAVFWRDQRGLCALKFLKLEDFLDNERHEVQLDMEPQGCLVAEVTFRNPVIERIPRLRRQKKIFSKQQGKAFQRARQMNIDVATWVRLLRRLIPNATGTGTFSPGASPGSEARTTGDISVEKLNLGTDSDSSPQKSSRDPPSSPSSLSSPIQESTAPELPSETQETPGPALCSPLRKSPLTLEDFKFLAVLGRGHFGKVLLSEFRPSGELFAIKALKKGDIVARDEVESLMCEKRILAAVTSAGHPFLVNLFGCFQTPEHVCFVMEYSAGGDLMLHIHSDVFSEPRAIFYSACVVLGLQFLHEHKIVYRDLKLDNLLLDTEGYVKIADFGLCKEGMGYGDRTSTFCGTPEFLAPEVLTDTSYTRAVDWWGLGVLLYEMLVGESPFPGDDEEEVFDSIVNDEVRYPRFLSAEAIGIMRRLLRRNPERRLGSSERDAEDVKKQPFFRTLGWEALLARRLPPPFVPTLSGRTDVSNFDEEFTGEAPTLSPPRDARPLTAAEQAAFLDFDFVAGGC
# T6 sequence (Q15208 whole entry): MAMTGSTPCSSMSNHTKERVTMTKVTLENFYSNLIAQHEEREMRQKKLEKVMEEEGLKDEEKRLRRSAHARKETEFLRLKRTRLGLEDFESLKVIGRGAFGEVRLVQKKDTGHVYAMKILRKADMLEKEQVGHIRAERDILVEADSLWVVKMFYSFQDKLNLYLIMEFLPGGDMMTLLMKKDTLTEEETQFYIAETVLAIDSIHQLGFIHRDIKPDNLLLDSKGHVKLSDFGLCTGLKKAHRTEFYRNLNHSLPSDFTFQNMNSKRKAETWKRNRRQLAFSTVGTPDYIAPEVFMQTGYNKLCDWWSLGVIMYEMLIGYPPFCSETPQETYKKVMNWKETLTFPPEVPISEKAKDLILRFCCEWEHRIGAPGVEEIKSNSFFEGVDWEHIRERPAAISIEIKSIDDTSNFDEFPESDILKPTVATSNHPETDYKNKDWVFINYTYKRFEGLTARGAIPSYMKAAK
# T2 sequence (Q00526 whole entry): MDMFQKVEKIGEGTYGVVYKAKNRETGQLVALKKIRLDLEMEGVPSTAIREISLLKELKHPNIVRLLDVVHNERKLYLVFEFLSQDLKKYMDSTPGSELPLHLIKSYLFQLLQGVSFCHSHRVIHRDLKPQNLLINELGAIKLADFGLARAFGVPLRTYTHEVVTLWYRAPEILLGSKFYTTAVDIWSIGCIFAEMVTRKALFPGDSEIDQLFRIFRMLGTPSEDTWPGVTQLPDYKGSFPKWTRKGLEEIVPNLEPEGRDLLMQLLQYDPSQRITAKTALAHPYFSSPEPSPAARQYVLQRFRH
# T2 sequence (P24864 whole entry partner): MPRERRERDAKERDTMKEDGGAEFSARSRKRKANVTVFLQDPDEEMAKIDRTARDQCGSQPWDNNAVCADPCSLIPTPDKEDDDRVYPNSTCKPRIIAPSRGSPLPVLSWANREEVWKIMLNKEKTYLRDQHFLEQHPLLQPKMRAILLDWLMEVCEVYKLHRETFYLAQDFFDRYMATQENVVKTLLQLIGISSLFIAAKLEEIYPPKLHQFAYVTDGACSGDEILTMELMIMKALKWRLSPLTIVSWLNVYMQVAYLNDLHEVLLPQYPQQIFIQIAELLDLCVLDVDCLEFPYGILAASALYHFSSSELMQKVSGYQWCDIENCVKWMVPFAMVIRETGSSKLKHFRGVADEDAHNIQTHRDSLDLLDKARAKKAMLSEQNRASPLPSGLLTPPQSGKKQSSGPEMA
# T8 sequence (P12931 whole entry): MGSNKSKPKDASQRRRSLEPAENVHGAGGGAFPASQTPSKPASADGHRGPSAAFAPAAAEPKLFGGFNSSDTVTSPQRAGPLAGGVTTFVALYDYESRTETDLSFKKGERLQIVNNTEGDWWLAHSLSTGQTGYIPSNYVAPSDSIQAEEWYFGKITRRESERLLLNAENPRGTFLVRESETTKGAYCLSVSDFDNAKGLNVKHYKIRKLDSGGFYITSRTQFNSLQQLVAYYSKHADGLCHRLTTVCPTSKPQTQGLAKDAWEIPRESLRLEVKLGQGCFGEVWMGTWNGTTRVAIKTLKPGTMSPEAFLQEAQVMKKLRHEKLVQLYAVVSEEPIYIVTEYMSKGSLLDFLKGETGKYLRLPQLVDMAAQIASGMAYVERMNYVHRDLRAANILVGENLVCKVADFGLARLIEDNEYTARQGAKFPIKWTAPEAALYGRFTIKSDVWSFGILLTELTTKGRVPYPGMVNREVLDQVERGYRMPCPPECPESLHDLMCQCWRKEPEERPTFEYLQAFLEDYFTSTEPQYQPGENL
# T1 sequence (P36894 24-532): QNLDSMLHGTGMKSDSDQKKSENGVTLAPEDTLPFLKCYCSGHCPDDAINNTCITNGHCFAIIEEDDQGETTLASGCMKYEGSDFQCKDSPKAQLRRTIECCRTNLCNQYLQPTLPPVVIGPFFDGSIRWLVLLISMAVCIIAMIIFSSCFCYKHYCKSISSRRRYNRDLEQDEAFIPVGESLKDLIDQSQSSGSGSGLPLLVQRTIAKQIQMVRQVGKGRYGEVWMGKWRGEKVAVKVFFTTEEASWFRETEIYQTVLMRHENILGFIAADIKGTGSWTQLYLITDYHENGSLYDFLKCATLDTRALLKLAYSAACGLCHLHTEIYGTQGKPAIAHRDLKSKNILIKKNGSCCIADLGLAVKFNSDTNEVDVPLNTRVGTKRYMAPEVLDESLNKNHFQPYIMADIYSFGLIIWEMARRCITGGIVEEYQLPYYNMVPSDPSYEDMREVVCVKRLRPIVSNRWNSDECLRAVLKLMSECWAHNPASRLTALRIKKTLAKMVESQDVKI
smiles,measurement,setting,value
C=CC(=O)Nc1cccc(Nc2nc(Nc3ccc(OCCOC)c(F)c3)ncc2F)c1 [Compound 2],inhibition at 3 µM,ALK3/BMPR1A,-4.41%
same,remaining activity at 3 µM,ALK3/BMPR1A; [1],104%
same,remaining activity at 3 µM,ALK3/BMPR1A; [2],105%
same,inhibition at 3 µM,CDK3/cyclin E,22.4%
same,remaining activity at 3 µM,CDK3/cyclin E; [1],78.2%
same,remaining activity at 3 µM,CDK3/cyclin E; [2],77%
same,inhibition at 3 µM,LYN,27.5%
same,remaining activity at 3 µM,LYN; [1],71.7%
same,remaining activity at 3 µM,LYN; [2],73.2%
same,inhibition at 3 µM,PKCmu/PRKD1,24.6%
same,remaining activity at 3 µM,PKCmu/PRKD1; [1],74.8%
same,remaining activity at 3 µM,PKCmu/PRKD1; [2],75.8%
same,inhibition at 3 µM,PKN1/PRK1,6.94%
same,remaining activity at 3 µM,PKN1/PRK1; [1],93.8%
same,remaining activity at 3 µM,PKN1/PRK1; [2],92.3%
same,inhibition at 3 µM,STK38/NDR1,6.79%
same,remaining activity at 3 µM,STK38/NDR1; [1],92.7%
same,remaining activity at 3 µM,STK38/NDR1; [2],93.7%
same,inhibition at 3 µM,TXK,99.8%
same,remaining activity at 3 µM,TXK; [1],0.42%
same,remaining activity at 3 µM,TXK; [2],0.03%
same,inhibition at 3 µM,c-Src,72%
same,remaining activity at 3 µM,c-Src; [1],28.2%
same,remaining activity at 3 µM,c-Src; [2],27.9%
